Test results taken from US12240846B2 (Enliven Inc., priority 2020, dated 2025).

Key:
K562 cells = test: K562 cell proliferation assay (CellTiter-Glo); assay type: cell-based; settings: Homo sapiens, K562 cell viability, 72 hours, read-out: Cell Line (IC50, nM) K562
Experimental: (§1) K562 and HL60 Cell Proliferation Assay
(§2) K562 and HL60 cells, cultured in Iscove's Modified Dulbecco's Media (IMDM) supplemented with 10% FBS, were harvested at 50-80% confluency and plated at 2,000 cells per well (K562) or 1,500 cells per well (HL60) in 384-well tissue culture plates. A subset of wells contained media only (low control, LC). […] The plates were placed in a 37° C. incubator with 5% CO2 for 72 hours. Cell viability was measured using a CellTiter-Glo luminescent cell viability assay (Promega), which allows for relative quantification of metabolically active cells by luminescence-based measurements of intracellular ATP concentrations. Briefly, plates were removed from the incubator and equilibrated for 15 minutes at room temperature prior to the addition of 40 μL of CellTiter-Glo reagent. Plates were then incubated for 30 minutes at room temperature. Luminescence was measured using an EnSpire plate reader (Perkin Elmer). As noted above, luminescence values from wells with DMSO only or media without cells were used as high and low controls (HC and LC), respectively. Normalized percent viability was calculated as follows: percent viability=100×(Lumsample−LumLC)/(LumHC−LumLC).

HL60 cells = test: HL60 cell proliferation assay (CellTiter-Glo); assay type: cell-based; settings: Homo sapiens, HL-60, HL60 cell viability, 72 hours, read-out: Cell Line (IC50, nM) HL60
Experimental: as §1, §2

ABL1 = biological target: T1, ABL1 (Homo sapiens, UniProt P00519); test: Luminescence-based ABL kinase assay (300 μM ATP), ADP-Glo; assay type: biochemical
T1 construct: purchased Carna Biosciences
Description: Compounds were serially diluted in DMSO. […] Luminescence signal positively correlates with kinase activity.

ABL1 (T315I) = ABL1 (T315I) (Homo sapiens, UniProt P00519, T315I); test: as above; assay type: biochemical
Experimental: Kinase activity of ABL1 was measured using the ADP-Glo system (Promega), which measures formation of ADP using a luminescence-based method. Compounds were serially diluted in DMSO. 20 nL of compound or DMSO only (high control, HC) were added to a 384-well plate (OptiPlate-384. PerkinElmer) using an Echo550 liquid handler (Labcyte). 15 μL of kinase solution (10 mM MgCl2, 0.01% Brij-35, 2 mM DTT, 0.05% BSA, 1 mM EGTA, 50 mM HEPES pH 7.5, and 3.325 nM ABL1 [Carna Biosciences]) were added to each well of the 384-well plate containing the compounds. No enzyme control wells were included (low control, LC). The plate was incubated at room temperature for 30 minutes. 5 μL of a second solution containing 10 mM MgCl2, 0.01% Brij-35, 2 mM DTT, 0.05% BSA, 1 mM EGTA, 50 mM HEPES pH 7.5, 6 μM Peptide 2 (Perkin Elmer, Cat No 760346), and 1.2 mM ATP were added to each well to start the kinase reaction. The plate was incubated for 90 minutes at room temperature. 20 μL of ADP-Glo reagent (Promega) were then added to each well and the plate was incubated for 40 minutes at room temperature. 40 μL of kinase detection reagent (Promega) was added to each well and the plate was incubated for an additional 45 minutes at room temperature. During this step, ADP was converted to ATP, a substrate for luciferase, to produce luminescence signal. Luminescence was measured on an Envision plate reader (Perkin Elmer). Luminescence signal positively correlates with kinase activity. The percent kinase activity was calculated as follows: percent kinase activity=100×(Lumsample−LumLC)/(LumHC−LumLC). As noted above, DMSO only and no enzyme wells were used as high and low controls, respectively. IC50 values were calculated using the XLFit software.

SMILES | IC50 (K562 cells) [nM] | IC50 (HL60 cells) [nM] | IC50 (ABL1) [nM] | IC50 (ABL1 (T315I)) [nM]
COc1ccccc1-c1cc2cc(NC(=O)[C@H]3C[C@H]3CO)ncc2n1C (relative stereo) [Compound 23, cis-2-(hydroxymethyl)-N-(2-(2-methoxyphenyl)-1-methyl-1H-pyrrolo[2,3-c]pyridin-5-yl)cyclopropane-1-carboxamide] | 631 | 1690 | 119 | 79.5
COc1ccnc(OC)c1-c1cc2cc(NC(=O)[C@H]3C[C@@H]3CN3C4CCC3CNC4)ncc2n1C (relative stereo) [Compound 147, Trans-2-((3,8-diazabicyclo[3.2.1]octan-8-yl)methyl)-N-(2-(2,4-dimethoxypyridin-3-yl)-1-methyl-1H-pyrrolo[2,3-c]pyridin-5-yl)cyclopropane-1-carboxamide] | 152 | – | 24.4 | 41.8
COc1ccnc(OC)c1-c1cc2cc(NC(=O)[C@@H]3C[C@H]3CN3CCN(C)CC3)ncc2n1C (single isomer, unassigned) [Compound 121] | 99.1 | > 10000 | 88.8 | 87.9
COc1ccnc(OC)c1-c1cc2cc(NC(=O)[C@@H]3C[C@H]3CN(C)C)ncc2n1C (single isomer, unassigned) [Compound 122] | 117 | > 10000 | 53.4 | 52.8
COc1ccnc(OC)c1-c1cc2cc(NC(=O)[C@H]3C[C@@H]3CN(C)C)ncc2n1C (single isomer, unassigned) [Compound 123] | 106 | 1770 | 59.4 | 80.6
COc1ncnc(OC)c1-c1cc2cc(NC(=O)[C@H]3C[C@@H]3CN3CCN(C)CC3)ncc2n1C (single isomer, unassigned) [Compound 124] | 41.4 | > 10000 | 14.9 | 56.7
COc1ncnc(OC)c1-c1cc2cc(NC(=O)[C@@H]3C[C@H]3CN3CCN(C)CC3)ncc2n1C (single isomer, unassigned) [Compound 125] | 113 | > 10000 | 48.3 | 107
COc1ncc(F)c(OC)c1-c1cc2cc(NC(=O)[C@@H]3C[C@H]3CN3CCN(C)CC3)ncc2n1C (single isomer, unassigned) [Compound 129] | 85.5 | > 10000 | 33.4 | 34.6
COc1ncc(F)c(OC)c1-c1cc2cc(NC(=O)[C@@H]3C[C@H]3CN(C)C)ncc2n1C (single isomer, unassigned) [Compound 130] | 108 | > 10000 | 37.3 | 58.1
COc1ccccc1-c1cc2cc(NC(=O)[C@@H]3C[C@H]3CN(C)C)ncc2n1C (single isomer, unassigned) [Compound 132] | 165 | – | 59.4 | 75.1
COc1ccccc1-c1cc2cc(NC(=O)[C@H]3C[C@@H]3CN(C)C)ncc2n1C (single isomer, unassigned) [Compound 133] | 181 | – | 73.5 | 85.9
COc1ccccc1-c1cc2cc(NC(=O)C3CC3)ncc2n1C [Compound 2, N-(2-(2-methoxyphenyl)-1-methyl-1H-pyrrolo[2,3-c]pyridin-5-yl)cyclopropanecarboxamide] | 109 | 202 | 25.4 | 17.7
CCOc1ccccc1-c1cc2cc(NC(=O)C3CC3)ncc2n1C [Compound 3, N-[2-(2-ethoxyphenyl)-1-methylpyrrolo[2,3-c]pyridin-5-yl]cyclopropanecarboxamide] | 127 | 209 | – | –
Cc1c(O)cccc1-c1cc2cc(NC(=O)C3CC3)ncc2n1C [Compound 7, N-[2-(3-hydroxy-2-methylphenyl)-1-methylpyrrolo[2,3-c]pyridin-5-yl]cyclopropanecarboxamide] | 37.8 | 60.9 | 9.22 | 6.59
Cc1cc(O)ccc1-c1cc2cc(NC(=O)C3CC3)ncc2n1C [Compound 8, N-[2-(4-hydroxy-2-methylphenyl)-1-methylpyrrolo[2,3-c]pyridin-5-yl]cyclopropanecarboxamide] | 95.6 | 59.1 | – | –
COc1cccc(C)c1-c1cc2cc(NC(=O)C3CC3)ncc2n1C [Compound 11, N-[2-(2-methoxy-6-methylphenyl)-1-methylpyrrolo[2,3-c]pyridin-5-yl]cyclopropanecarboxamide] | 0.421 | 182 | 13.8 | 38.6
Cc1ccc(F)cc1-c1cc2cc(NC(=O)C3CC3)ncc2n1C [Compound 12, N-[2-(5-fluoro-2-methylphenyl)-1-methylpyrrolo[2,3-c]pyridin-5-yl]cyclopropanecarboxamide] | 317 | 4220 | – | –
COc1ncccc1-c1cc2cc(NC(=O)C3CC3)ncc2n1C [Compound 22, N-[2-(2-methoxypyridin-3-yl)-1-methylpyrrolo[2,3-c]pyridin-5-yl]cyclopropanecarboxamide] | 179 | 958 | – | –
Cc1c(O)cccc1-c1cc2cc(NC(=O)[C@@H]3C[C@@H]3F)ncc2n1C [Compound 24, (1S,2S)-2-fluoro-N-(2-(3-hydroxy-2-methylphenyl)-1-methyl-1H-pyrrolo[2,3-c]pyridin-5-yl)cyclopropane-1-carboxamide] | 122 | 794 | 9.33 | 8.34
COc1nc(C2CC2)nc(OC)c1-c1cc2cc(NC(=O)[C@@H]3C[C@@H]3F)ncc2n1C [Compound 100, (1S,2S)-N-(2-(2-cyclopropyl-4,6-dimethoxypyrimidin-5-yl)-1-methyl-1H-pyrrolo[2,3-c]pyridin-5-yl)-2-fluorocyclopropane-1-carboxamide] | 66.2 | – | 49.2 | 233
COc1nc(C)c(F)c(OC)c1-c1cc2cc(NC(=O)[C@@H]3C[C@@H]3F)ncc2n1C [Compound 101, (1S,2S)-2-fluoro-N-[2-(5-fluoro-2,4-dimethoxy-6-methylpyridin-3-yl)-1-methylpyrrolo[2,3-c]pyridin-5-yl]cyclopropane-1-carboxamide] | 456 | – | 153 | 2330
COc1nc(N(C)C)nc(OC)c1-c1cc2cc(NC(=O)[C@@H]3C[C@@H]3F)ncc2n1C [Compound 104, (1S,2S)-N-(2-(2-(dimethylamino)-4,6-dimethoxypyrimidin-5-yl)-1-methyl-1H-pyrrolo[2,3-c]pyridin-5-yl)-2-fluorocyclopropane-1-carboxamide] | – | 240 | – | –
[2H]C([2H])([2H])Oc1ncnc(OC([2H])([2H])[2H])c1-c1cc2cc(NC(=O)[C@@H]3C[C@@H]3F)ncc2n1C([2H])([2H])[2H] [Compound 111, (1S,2S)-N-(2-(4,6-bis(methoxy-d3)pyrimidin-5-yl)-1-(methyl-d3)-1H-pyrrolo[2,3-c]pyridin-5-yl)-2-fluorocyclopropane-1-carboxamide] | 23 | – | – | –
COc1cccc(OC)c1-c1cc2cc(NC(=O)[C@@H]3C[C@H]3CN(C)C)ncc2n1C [Compound 134, (1R,2R)-N-(2-(2,6-dimethoxyphenyl)-1-methyl-1H-pyrrolo[2,3-c]pyridin-5-yl)-2-((dimethylamino)methyl)cyclopropane-1-carboxamide] | 53.1 | – | – | –
COc1cccc(OC)c1-c1cc2cc(NC(=O)[C@H]3C[C@@H]3CN(C)C)ncc2n1C [Compound 135, (J S,2S)-N-(2-(2,6-dimethoxyphenyl)-1-methyl-1H-pyrrolo[2,3-c]pyridin-5-yl)-2-((dimethylamino)methyl)cyclopropane-1-carboxamide] | 27.9 | – | – | –
COc1ncnc(OC)c1-c1cc2cc(NC(=O)[C@@H]3CC3(F)F)ncc2n1C [Compound 136, (1S)-N-[2-(4,6-dimethoxypyrimidin-5-yl)-1-methylpyrrolo[2,3-c]pyridin-5-yl]-2,2-difluorocyclopropane-1-carboxamide] | 98.8 | 1200 | – | –
COc1ncnc(OC)c1-c1cc2cc(NC(=O)[C@H]3CC3(F)F)ncc2n1C [Compound 137, (1R)-N-[2-(4,6-dimethoxypyrimidin-5-yl)-1-methylpyrrolo[2,3-c]pyridin-5-yl]-2,2-difluorocyclopropane-1-carboxamide] | 37 | 148 | – | –
Cn1c(-c2cc(F)cnc2OC2CC2)cc2cc(NC(=O)[C@@H]3C[C@@H]3F)ncc21 [Compound 140, (1S,2S)-N-[2-(2-cyclopropoxy-5-fluoropyridin-3-yl)-1-methylpyrrolo[2,3-c]pyridin-5-yl]-2-fluorocyclopropane-1-carboxamide] | 291 | > 10000 | 95.8 | –
[2H]C([2H])([2H])Oc1ncnc(OC([2H])([2H])[2H])c1-c1cc2cc(NC(=O)[C@@H]3C[C@@H]3F)ncc2[nH]1 [Compound 144, (1S,2S)-N-(2-(4,6-bis(methoxy-d3)pyrimidin-5-yl)-1H-pyrrolo[2,3-c]pyridin-5-yl)-2-fluorocyclopropane-1-carboxamide] | 1070 | > 10000 | – | –
